Data: patent publication US8410114B2, “2-pyrazinone derivatives for the treatment of disease or condition in which inhibition of neutrophil elastase activity is beneficial” (AstraZeneca AB, priority 2006, dated 2013)

The molecules below were run against T1, Human Neutrophil Elastase (HNE) (Homo sapiens, UniProt P08246) (assay: Human Neutrophil Elastase Quenched-FRET Assay). Conditions: HNE 1.7 nM, substrate MeOSuc-AAPV-AMC 100 μM, 15 min preincubation, 30 min incubation at room temperature; read-out: Inhibition of Human Neutrophil Elastase IC50.
T1 construct: Human Neutrophil Elastase (HNE) purified from serum (Calbiochem art. 324681); purchased Calbiochem 324681; host or cells: purified from human material ('serum' in the source)
T1 sequence (P08246 30-247 limits assumed): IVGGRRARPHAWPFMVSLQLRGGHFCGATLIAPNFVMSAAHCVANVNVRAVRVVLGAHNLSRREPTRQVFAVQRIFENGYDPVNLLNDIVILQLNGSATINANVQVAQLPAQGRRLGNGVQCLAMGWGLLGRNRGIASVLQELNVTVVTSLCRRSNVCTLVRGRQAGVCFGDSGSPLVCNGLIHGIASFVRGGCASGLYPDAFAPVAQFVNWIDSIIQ
Format: biochemical
Procedure: Human Neutrophil Elastase Quenched-FRET Assay
The assay uses Human Neutrophil Elastase (HNE) purified from serum (Calbiochem art. 324681; Ref. Baugh, R. J. et al., 1976, Biochemistry. 15, 836-841). HNE was stored in 50 mM sodium acetate (NaOAc), 200 mM sodium chloride (NaCl), pH 5.5 with added 30% glycerol at −20° C. The protease substrate used was Elastase Substrate V Fluorogenic, MeOSuc-AAPV-AMC (Calbiochem art. 324740; Ref. Castillo, M. J. et al., 1979, Anal. Biochem. 99, 53-64). The substrate was stored in dimethyl sulphoxide (DMSO) at −20° C. The assay additions were as follows: Test compounds and controls were added to black 96-well flat-bottom plates (Greiner 655076), 1 μL in 100% DMSO, followed by 30 μL HNE in assay buffer with 0.01% Triton (trade mark) X-100 detergent. The assay buffer constitution was: 100 mM Tris(hydroxymethyl)aminomethane (TRIS) (pH 7.5) and 500 mM NaCl. The enzyme and the compounds were incubated at room temperature for 15 minutes. Then 30 μl substrate in assay buffer was added. The assay was incubated for 30 minutes at room temperature. The concentrations of HNE enzyme and substrate during the incubation were 1.7 nM and 100 μM, respectively. The assay was then stopped by adding 60 μl stop solution (140 mM acetic acid, 200 mM sodium monochloroacetate, 60 mM sodium acetate, pH 4.3). Fluorescence was measured on a Wallac 1420 Victor 2 instrument at settings: Excitation 380 nm, Emission 460 nm. IC50 values were determined using Xlfit curve fitting using model 205.

| Compound | IC50 [pM] |
| --- | --- |
| CNC(=O)c1nc(-c2ccnn2-c2ccc(C#N)cc2)c(C)n(-c2cccc(C(F)(F)F)c2)c1=O [Example 1, 6-[2-(4-Cyano-phenyl)-2H-pyrazol-3-yl]-5-methyl-3-oxo-4-(3-trifluoromethyl-phenyl)-3,4-dihydro-pyrazine-2-carboxylic acid methylamide] | 330 |
| Cc1c(-c2ccnn2-c2ccc(C#N)cc2)nc(C(=O)NCc2ccc(S(C)(=O)=O)cn2)c(=O)n1-c1cccc(C(F)(F)F)c1 [Example 2, 6-[2-(4-Cyano-phenyl)-2H-pyrazol-3-yl]-5-methyl-3-oxo-4-(3-trifluoromethyl-phenyl)-3,4-dihydro-pyrazine-2-carboxylic acid (5-methanesulfonyl-pyridin-2-ylmethyl)-amide] | 320 |
| Cc1c(-c2ccnn2-c2ccc(C#N)nc2)nc(C(=O)NC2CC2)c(=O)n1-c1cccc(C(F)(F)F)c1 [Example 12, 6-[1-(6-Cyanopyridin-3-yl)-1H-pyrazol-5-yl]-N-cyclopropyl-5-methyl-3-oxo-4-[3-(trifluoromethyl)phenyl]-3,4-dihydropyrazine-2-carboxamide] | 1000 |
| Cc1c(-c2ccnn2-c2ccc(C#N)cc2)nc(C(=O)NCC(=O)O)c(=O)n1-c1cccc(C(F)(F)F)c1 [Example 16, 2-[[6-[2-(4-Cyanophenyl)pyrazol-3-yl]-5-methyl-3-oxo-4-[3-(trifluoromethyl)phenyl]-3,4-dihydro-pyrazine-2-carbonyl]amino]acetic acid] | 610 |
